Experimental data taken from article PMC10301922, “Anti-Oxidant, Anti-Mutagenic Activity and Safety Evaluation of Antrocin” (Toxics, 2023).
Values joined by “and” are separate entries in the source; they are usually repeats but may differ in a detail not shown here. Identical values can stand only once.

Assays:
Sprague Dawley rats = assay: 28-day oral toxicity test: serum biochemistry
Total polyphenol content = settings: 10 mg/mL antrocin
Method: We added 40–50 μL of sample to a 96-well plate and made it up to 100 μL with ddH2O. For each sample, a parallel sample was prepared as a sample background control. Vanillic acid was used as a positive control. We added 50 μL of 50 mM vanillic acid solution per well to the desired wells and made it up to 100 μL with ddH2O. We adjusted the volume of all standard curves to 100 µL with ddH2O. We then added 20 μL PC (Phenolic Compounds) Probe to the standard curve and sample reaction wells, and 20 μL PC Assay Buffer to the sample background wells. For standard curve preparation, we added 0, 2, 4, 6, 8, and 10 μL of 1 mM catechin standards to clear 96-well plates to generate 0, 2, 4, 6, 8, and 10 nmol/well catechin standard, respectively. We adjusted the volume of all standard curves to 100 µL with ddH2O. […] The absorbance was measured at 480 nm.
We subtracted the 0 nmol standard OD480 value from all standard curve readings and drew a catechin standard curve. If the sample background well reads were significant, the sample background control reads were subtracted from their paired sample reads. […]
B stands for the amount of diazo chromophore, calculated from the standard curve (nmol of catechin); D stands for the sample dilution factor (for undiluted samples, D = 1); V stands for the volume of sample added to the well (in µL).

[1] = Trolox equivalent antioxidant capacity (TEAC); settings: 10 mg/mL antrocin
Method: The following methodology describes the TEAC assay: Add 40 μL of sample to a 96-well plate and adjust the volume to 100 μL with ddH2O. The absorbance of the sample should be within the linear range of the standard curve (0–20 nmol/well). The detection limit of this assay is approximately 0.1 nmol (or 1 µM) Trolox per well. For Trolox Standard Curve Preparation, dissolve lyophilized Trolox Standard in 20 µL of pure DMSO, add 980 µL of distilled water and mix well to generate a 1 mM solution, then aliquot the solution and store it at −20 °C for stable storage for 4 months. Add 0, 4, 8, 12, 16, 20 µL of Trolox standard to each well. Adjust the total volume to 100 µL with ddH2O to obtain 0, 4, 8, 12, 16, 20 nmol of Trolox standards, respectively. For preparation of working solutions, dilute 1 part of Cu^2+ reagent with 49 parts of Assay Diluent, and dilute enough working solution for detection. Add 100 µL of Cu^2+ working solution to standard wells and sample wells. After capping the plate and reacting at room temperature for 1.5 h, measure the absorbance at 570 nm. Draw a Trolox standard curve by subtracting the 0 nmol standard reading from all standard curve readings. […]
• Sa = the amount of sample (in nmol) read from the standard curve. • Sv = the undiluted sample volume added to the well.

[2] = female rats, 7.5 mg/kg oral 28 d
[3] = female rats, 37.5 mg/kg oral 28 d
[4] = male rats, 37.5 mg/kg oral 28 d

## C=C1CC[C@H]2C(C)(C)CCC[C@@]23C(=O)OC[C@@H]13 [Antrocin, (-)-Antrocin]
Sprague Dawley rats; [2]
  A/G: 1.9 ± 0.2
  ALP: 147.4 ± 27.6 U/L
  ALT: 24.2 ± 1.9 U/L
  AST: 58.0 ± 8.5 U/L
  Albumin: 3.7 ± 0.2 g/dL
  Amylase: 1280.6 ± 111.3 U/L
  BUN: 12.0 ± 1.0 mg/dL
  CK: 100.2 ± 30.8 U/L
  Ca^2+: 9.9 ± 0.1 mg/dL
  Cholesterol: 51.2 ± 9.8 mg/dL
  Creatinine: 0.4 ± 0.0 mg/dL
  GGT: 1–2 U/L
  Globulin: 1.9 ± 0.1 g/dL
  Glucose: 182.4 ± 42.9 mg/dL
  HDL-C: 16.0 ± 3.4 mg/dL
  K^+: 5.2 ± 0.2
  LDH: 92.4 ± 73.8 U/L
  Mg^2+: 2.1 ± 0.1
  Na^+: 139.2 ± 1.6
  Phosphate: 8.5 ± 1.0 mg/dL
  TB: <0.1 mg/dL
  TG: 32.8 ± 5.2 mg/dL
  TP: 5.6 ± 0.2
  UA: 0.9 ± 0.1 mg/dL
Sprague Dawley rats; [3]
  A/G: 1.7 ± 0.1
  ALP: 116.4 ± 35.7 U/L
  ALT: 32.6 ± 6.2 U/L
  AST: 72.6 ± 7.4 U/L
  Albumin: 3.8 ± 0.2 g/dL
  Amylase: 1240.4 ± 239.9 U/L
  BUN: 11.0 ± 0.7 mg/dL
  CK: 129.8 ± 59.5 U/L
  Ca^2+: 10.2 ± 0.2 mg/dL
  Cholesterol: 47.0 ± 11.8 mg/dL
  Cl^−: 104.2 ± 1.3
  Creatinine: 0.3 ± 0.1 mg/dL
  GGT: 1–2 U/L
  Globulin: 2.2 ± 0.1 g/dL
  Glucose: 138.2 ± 21.7 mg/dL
  HDL-C: 14.6 ± 3.8 mg/dL
  K^+: 5.0 ± 0.7
  LDH: 125.4 ± 96.2 U/L
  Mg^2+: 2.4 ± 0.3
  Na^+: 142.6 ± 1.1
  Phosphate: 8.5 ± 0.5 mg/dL
  TB: <0.1 mg/dL
  TG: 27.2 ± 8.1 mg/dL
  TP: 6.0 ± 0.3
  UA: 1.3 ± 0.6 mg/dL
Sprague Dawley rats; male rats, 7.5 mg/kg oral 28 d
  A/G: 1.8 ± 0.1
  ALP: 238.4 ± 43.9 U/L
  ALT: 28.2 ± 3.1 U/L
  AST: 61.4 ± 4.3 U/L
  Albumin: 3.4 ± 0.1 g/dL
  Amylase: 1931.0 ± 241.1 U/L
  BUN: 11.2 ± 1.3 mg/dL
  CK: 185.6 ± 96.1 U/L
  Ca^2+: 9.7 ± 0.2 mg/dL
  Cholesterol: 41.2 ± 6.3 mg/dL
  Creatinine: 0.3 ± 0.0 mg/dL
  GGT: <1 U/L
  Globulin: 1.9 ± 0.1 g/dL
  Glucose: 178.0 ± 25.7 mg/dL
  HDL-C: 12.8 ± 1.5 mg/dL
  K^+: 6.5 ± 0.3
  LDH: 219.6 ± 139.5 U/L
  Mg^2+: 2.0 ± 0.1
  Na^+: 141.8 ± 0.8
  Phosphate: 9.1 ± 0.9 mg/dL
  TB: <0.1 mg/dL
  TG: 33.0 ± 8.1 mg/dL
  TP: 5.3 ± 0.2
  UA: 1.5 ± 0.1 mg/dL
Sprague Dawley rats; [4]
  A/G: 1.8 ± 0.1
  ALP: 256.8 ± 44.0 U/L
  ALT: 27.6 ± 2.1 U/L
  AST: 60.2 ± 3.3 U/L
  Albumin: 3.5 ± 0.2 g/dL
  Amylase: 2016.4 ± 289.7 U/L
  BUN: 11.6 ± 1.8 mg/dL
  CK: 156.4 ± 31.1 U/L
  Ca^2+: 9.9 ± 0.4 mg/dL
  Cholesterol: 44.0 ± 2.5 mg/dL
  Cl^−: 104.6 ± 2.1
  Creatinine: 0.3 ± 0.0 mg/dL
  GGT: <1 U/L
  Globulin: 2.0 ± 0.2 g/dL
  Glucose: 178.0 ± 14.5 mg/dL
  HDL-C: 15.2 ± 2.8 mg/dL
  K^+: 6.4 ± 0.6
  LDH: 109.8 ± 33.5 U/L
  Mg^2+: 2.1 ± 0.2
  Na^+: 141.4 ± 2.3
  Phosphate: 9.6 ± 1.6 mg/dL
  TB: <0.1 mg/dL
  TG: 46.2 ± 8.3 mg/dL
  TP: 5.5 ± 0.4
  UA: 1.6 ± 0.3 mg/dL
Total polyphenol content
  Total Phenolic Contents (mM Catechin Equivalents): 0.016 ± 0.000 mM Catechin equivalents and 0.016 ± 0.000 ^1 mM Catechin equivalents
[1]
  Trolox Equivalent Antioxidant Capacity (mM Trolox Equivalents): 0.508 ± 0.003 mM Trolox equivalents
